Converted amounts (≈) assume the structure as drawn.
Tests used:
Aqueous solubility = assay type: physicochemical
[1] = cited from earlier work

Times Increased of Aqueous Solubility (Comp. vs. Rapa) (Aqueous solubility; ratio of compound solubility to Rapa solubility): 1 | solubility (Aqueous solubility; water): 2.6 µg/mL (≈ 2.84 µM)
Structure (SMILES): CO[C@H]1C[C@@H]2CC[C@@H](C)[C@@](O)(O2)C(=O)C(=O)N2CCCC[C@H]2C(=O)O[C@H]([C@H](C)C[C@@H]2CC[C@@H](O)[C@H](OC)C2)CC(=O)[C@H](C)/C=C(\C)[C@@H](O)[C@@H](OC)C(=O)[C@H](C)C[C@H](C)/C=C/C=C/C=C/1C [Rapa, Rapamycin, reference compound]
oral bioavailability [1]: 10%
